Among the data in patent US9663525B2, “Pyrazolopyrimidinyl inhibitors of ubiquitin-activating enzyme” (Millennium Pharmaceuticals, Inc., priority 2012, dated 2017) are IC50 values, retold here.

The target in the assay is recombinant human UAE (Homo sapiens (Human), UniProt P22314). As to the kind of experiment: Ubiquitin Activating Enzyme (UAE) HTRF assay, human UAE.

Structures are written as SMILES. A value given as a limit tells only on which side of the number the result lay.

Chain of recombinant human UAE (P22314 whole entry): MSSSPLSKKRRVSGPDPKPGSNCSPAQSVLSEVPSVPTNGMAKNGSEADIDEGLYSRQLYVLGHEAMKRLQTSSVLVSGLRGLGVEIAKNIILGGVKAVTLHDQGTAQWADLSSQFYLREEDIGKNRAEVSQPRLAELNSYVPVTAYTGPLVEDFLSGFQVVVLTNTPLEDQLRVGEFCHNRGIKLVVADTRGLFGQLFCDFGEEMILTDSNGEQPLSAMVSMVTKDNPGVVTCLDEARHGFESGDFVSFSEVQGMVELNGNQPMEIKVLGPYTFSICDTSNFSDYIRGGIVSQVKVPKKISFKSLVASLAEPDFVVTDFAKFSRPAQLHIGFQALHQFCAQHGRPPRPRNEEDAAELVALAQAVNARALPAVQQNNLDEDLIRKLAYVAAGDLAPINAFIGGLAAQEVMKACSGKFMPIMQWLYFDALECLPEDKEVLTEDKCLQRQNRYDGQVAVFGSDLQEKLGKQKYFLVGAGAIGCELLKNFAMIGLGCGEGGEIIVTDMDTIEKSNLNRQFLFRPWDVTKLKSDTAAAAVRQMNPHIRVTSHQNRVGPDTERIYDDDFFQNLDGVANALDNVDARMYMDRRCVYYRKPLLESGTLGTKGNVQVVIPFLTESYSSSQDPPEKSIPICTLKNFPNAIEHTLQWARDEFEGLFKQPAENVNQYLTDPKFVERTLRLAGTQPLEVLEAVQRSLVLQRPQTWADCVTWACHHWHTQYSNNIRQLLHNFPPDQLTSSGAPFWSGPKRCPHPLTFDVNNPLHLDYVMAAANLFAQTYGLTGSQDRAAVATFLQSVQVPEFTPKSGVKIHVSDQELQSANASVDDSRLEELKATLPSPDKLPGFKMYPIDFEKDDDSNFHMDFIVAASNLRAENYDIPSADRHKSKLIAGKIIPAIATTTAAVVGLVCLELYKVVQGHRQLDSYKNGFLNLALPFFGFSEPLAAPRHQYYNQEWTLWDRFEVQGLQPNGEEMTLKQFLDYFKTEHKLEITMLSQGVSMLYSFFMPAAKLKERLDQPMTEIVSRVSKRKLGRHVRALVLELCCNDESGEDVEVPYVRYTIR
Procedure: After incubation for 120 minutes, quantification of the FRET is performed on the Pherostar (BMG).
For compounds whose values are marked with an asterisk (*), mouse UAE was used. For all other compounds, human UAE was used.

In the case of `NS(=O)(=O)OC[C@H]1C[C@@H](Nc2ccnc3cc(-c4cccc(-c5ccccc5)c4)nn23)[C@H](O)[C@@H]1O` (racemic) [Compound I-003, (rac)((1R,2R,3S,4R)-4-(2-(biphenyl-3-yl)pyrazolo[1,5-a]pyrimidin-7-ylamino)-2,3-dihydroxycyclopentyl)methyl rel-sulfamate], the IC50 is less than 0.01 µM.
On to `NS(=O)(=O)OC[C@H]1C[C@@H](Nc2ccnc3cc(-c4cccc(C(F)(F)F)c4)nn23)[C@H](O)[C@@H]1O` (racemic) [Compound I-007, (rac)-((1R,2R,3S,4R)-2,3-Dihydroxy-4-((2-(3-(trifluoromethyl)phenyl)pyrazolo[1,5-a]pyrimidin-7-yl)amino)cyclopentyl)methyl rel-sulfamate], for which the IC50 is less than 0.01 µM.
`NS(=O)(=O)OC[C@H]1C[C@@H](Nc2cc(Cl)nc3cc(-c4ccc(Br)cc4)nn23)[C@H](O)[C@@H]1O` (racemic) [Compound I-008, (rac)-((1R,2R,3S,4R)-4-(2-(4-bromophenyl)-5-chloropyrazolo[1,5-a]pyrimidin-7-ylamino)-2,3-dihydroxycyclopentyl)methyl rel-sulfamate]: the IC50 fell in the range of 0.1 to 1 µM.
The value for `NS(=O)(=O)OC[C@H]1C[C@@H](Nc2cc(Cl)nc3cc(-c4cccc5ccccc45)nn23)[C@H](O)[C@@H]1O` (racemic) [Compound I-009, (rac)-((1R,2R,3S,4R)-4-{[5-chloro-2-(1-naphthyl)pyrazolo[1,5-a]pyrimidin-7-yl]amino}-2,3-dihydroxycyclopentyl)methyl rel-sulfamate] was 0.1 to 1 µM.
In the case of `NS(=O)(=O)OC[C@H]1C[C@@H](Nc2ccnc3cc(-c4cccc5c4oc4ccccc45)nn23)[C@H](O)[C@@H]1O` (racemic) [Compound I-010, (rac)-((1R,2R,3S,4R)-4-(2-(dibenzo[b,d]furan-4-yl)pyrazolo[1,5-a]pyrimidin-7-ylamino)-2,3-dihydroxycyclopentyl)methyl rel-sulfamate], the IC50 was less than 0.01 µM.
The value for `NS(=O)(=O)OC[C@H]1C[C@@H](Nc2ccnc3cc(-c4ccc(Cl)cc4Cl)nn23)[C@H](O)[C@@H]1O` (racemic) [Compound I-013, (rac)-[(1R,2R,3S,4R)-4-{[2-(2,4-dichlorophenyl)pyrazolo[1,5-a]pyrimidin-7-yl]amino}-2,3-dihydroxycylopentyl]methyl rel-sulfamate] was 0.01 to 0.1 µM; that for `COc1ccc(-c2cc3nc(Cl)cc(N[C@@H]4C[C@H](COS(N)(=O)=O)[C@@H](O)[C@H]4O)n3n2)cc1` (racemic) [Compound I-014, (rac)-[(1R,2R,3S,4R)-4-{[5-chloro-2-(4-methoxyphenyl)pyrazolo[1,5-a]-pyrimidin-7-yl]amino}-2,3-dihydroxycyclopentyl]methyl rel-sulfamate] was 0.1 to 1 µM.
The result for `CC(C)(C)c1cccc(-c2cc3nccc(N[C@@H]4C[C@H](COS(N)(=O)=O)[C@@H](O)[C@H]4O)n3n2)c1` (racemic) [Compound I-015, (rac)-((1R,2R,3S,4R)-4-((2-(3-(tert-Butyl)phenyl)pyrazolo[1,5-a]pyrimidin-7-yl)amino)-2,3-dihydroxycyclopentyl)methyl rel-sulfamate] reads less than 0.01 µM; that for `NS(=O)(=O)OC[C@H]1C[C@@H](Nc2ccnc3cc(-c4ccc5ccccc5c4)nn23)[C@H](O)[C@@H]1O` (racemic) [Compound I-016, (rac)-((1R,2R,3S,4R)-2,3-dihydroxy-4-(2-(naphthalen-2-yl)pyrazolo[1,5-a]pyrimidin-7-ylamino)cyclopentyl)methyl rel-sulfamate], less than 0.01 µM.
The value for `NS(=O)(=O)OC[C@H]1C[C@@H](Nc2ccnc3cc(-c4cccc5cccnc45)nn23)[C@H](O)[C@@H]1O` (racemic) [Compound I-017, (rac)-((1R,2R,3S,4R)-2,3-Dihydroxy-4-((2-(quinolin-8-yl)pyrazolo[1,5-a]pyrimidin-7-yl)amino)cyclopentyl)methyl rel-sulfamate] was less than 0.01 µM.
As to `NS(=O)(=O)OC[C@H]1C[C@@H](Nc2ccnc3cc(-c4cncc5ccccc45)nn23)[C@H](O)[C@@H]1O` (racemic) [Compound I-018, (rac)-((1R,2R,3S,4R)-2,3-dihydroxy-4-(2-(isoquinolin-4-yl)pyrazolo[1,5-a]pyrimidin-7-ylamino)cyclopentyl)methyl rel-sulfamate], the IC50 is less than 0.01 µM.
The result for `NS(=O)(=O)OC[C@H]1C[C@@H](Nc2ccnc3cc(-c4ccc5oc6ccccc6c5c4)nn23)[C@H](O)[C@@H]1O` (racemic) [Compound I-019, (rac)-((1R,2R,3S,4R)-4-(2-(dibenzo[b,d]furan-2-yl)pyrazolo[1,5-a]pyrimidin-7-ylamino)-2,3-dihydroxycyclopentyl)methyl rel-sulfamate] reads less than 0.01 µM; that for `COc1ccc(Cl)cc1-c1cc2nccc(N[C@@H]3C[C@H](COS(N)(=O)=O)[C@@H](O)[C@H]3O)n2n1` (racemic) [Compound I-020, (rac)-((1R,2R,3S,4R)-4-(2-(5-chloro-2-methoxyphenyl)pyrazolo[1,5-a]pyrimidin-7-ylamino)-2,3-dihydroxycyclopentyl)methyl rel-sulfamate], less than 0.01 µM.
As to `Cc1ccc(Cl)cc1-c1cc2nccc(N[C@@H]3C[C@H](COS(N)(=O)=O)[C@@H](O)[C@H]3O)n2n1` (racemic) [Compound I-021, (rac)-((1R,2R,3S,4R)-4-(2-(5-chloro-2-methylphenyl)pyrazolo[1,5-a]pyrimidin-7-ylamino)-2,3-dihydroxycyclopentyl)methyl rel-sulfamate], the IC50 is less than 0.01 µM.
The result for `NS(=O)(=O)OC[C@H]1C[C@@H](Nc2ccnc3cc(-c4csc5ccccc45)nn23)[C@H](O)[C@@H]1O` (racemic) [Compound I-022, (rac)-((1R,2R,3S,4R)-4-(2-(benzo[b]thiophen-3-yl)pyrazolo[1,5-a]pyrimidin-7-ylamino)-2,3-dihydroxycyclopentyl)methyl rel-sulfamate] reads less than 0.01 µM; that for `CC1(C)COc2c(-c3cc4nccc(N[C@@H]5C[C@H](COS(N)(=O)=O)[C@@H](O)[C@H]5O)n4n3)cccc21` (racemic) [Compound I-023, (rac)-((1R,2R,3S,4R)-4-(2-(3,3-dimethyl-2,3-dihydrobenzofuran-7-yl)pyrazolo[1,5-a]pyrimidin-7-ylamino)-2,3-dihydroxycyclopentyl)methyl rel-sulfamate], 0.01 to 0.1 µM.
Regarding `NS(=O)(=O)OC[C@H]1C[C@@H](Nc2ccnc3cc(-c4cc5ccccc5[nH]4)nn23)[C@H](O)[C@@H]1O` (racemic) [Compound I-024, (rac)-((1R,2R,3S,4R)-4-(2-(1H-indol-2-yl)pyrazolo[1,5-a]pyrimidin-7-ylamino)-2,3-dihydroxycyclopentyl)methyl rel-sulfamate], the IC50 is less than 0.01 µM.
The value for `NS(=O)(=O)OC[C@H]1C[C@@H](Nc2ccnc3cc(-c4cnc5ccccc5c4)nn23)[C@H](O)[C@@H]1O` (racemic) [Compound I-025, (rac)-((1R,2R,3S,4R)-2,3-dihydroxy-4-(2-(quinolin-3-yl)pyrazolo[1,5-a]pyrimidin-7-ylamino)cyclopentyl)methyl rel-sulfamate] was 0.01 to 0.1 µM; that for `NS(=O)(=O)OC[C@H]1C[C@@H](Nc2ccnc3cc(-c4cccc5cnccc45)nn23)[C@H](O)[C@@H]1O` (racemic) [Compound I-027, (rac)-((1R,2R,3S,4R)-2,3-dihydroxy-4-(2-(isoquinolin-5-yl)pyrazolo[1,5-a]pyrimidin-7-ylamino)cyclopentyl)methyl rel-sulfamate] was less than 0.01 µM.
The result for `NS(=O)(=O)OC[C@H]1C[C@@H](Nc2ccnc3cc(-c4cccc(Br)c4)nn23)[C@H](O)[C@@H]1O` (racemic) [Compound I-028, (rac)-((1R,2R,3S,4R)-4-((2-(3-Bromophenyl)pyrazolo[1,5-a]pyrimidin-7-yl)amino)-2,3-dihydroxycyclopentyl)methyl rel-sulfamate] reads less than 0.01 µM; that for `NS(=O)(=O)OC[C@H]1C[C@@H](Nc2ccnc3cc(-c4c[nH]c5ccccc45)nn23)[C@H](O)[C@@H]1O` (racemic) [Compound I-032, (rac)-[(1R,2R,3S,4R)-2,3-dihydroxy-4-{[2-(1H-indol-3-yl)pyrazolo[1,5-a]pyrimidin-7-yl]amino}cyclopentyl]methyl rel-sulfamate], less than 0.01 µM; that for `NS(=O)(=O)OC[C@H]1C[C@@H](Nc2ccnc3cc(-c4ccc(C(F)(F)F)c5cccnc45)nn23)[C@H](O)[C@@H]1O` (racemic) [Compound I-033, (rac)-((1R,2R,3S,4R)-2,3-dihydroxy-4-(2-(5-(trifluoromethyl)quinolin-8-yl)pyrazolo[1,5-a]pyrimidin-7-ylamino)cyclopentyl)methyl rel-sulfamate], less than 0.01 µM.
For the molecule `NS(=O)(=O)OC[C@H]1C[C@@H](Nc2ccnc3cc(-c4ccc5ncccc5c4)nn23)[C@H](O)[C@@H]1O` (racemic) [Compound I-034, (rac)-((1R,2R,3S,4R)-2,3-dihydroxy-4-(2-(quinolin-6-yl)pyrazolo[1,5-a]pyrimidin-7-ylamino)cyclopentyl)methyl rel-sulfamate], the IC50 was less than 0.01 µM.
The result for `C[Si](C)(C)c1cccc(-c2cc3nccc(N[C@@H]4C[C@H](COS(N)(=O)=O)[C@@H](O)[C@H]4O)n3n2)c1` (racemic) [Compound I-035, (rac)-((1R,2R,3S,4R)-2,3-dihydroxy-4-(2-(3-(trimethylsilyl)phenyl)pyrazolo[1,5-a]pyrimidin-7-ylamino)cyclopentyl)methyl rel-sulfamate] reads less than 0.01 µM.
As to `NS(=O)(=O)OC[C@H]1C[C@@H](Nc2ccnc3cc(-c4cccc(-c5ccccn5)c4)nn23)[C@H](O)[C@@H]1O` (racemic) [Compound I-036, (rac)-((1R,2R,3S,4R)-2,3-Dihydroxy-4-((2-(3-(pyridin-2-yl)phenyl)pyrazolo[1,5-a]pyrimidin-7-yl)amino)cyclopentyl)methyl rel-sulfamate], the IC50 was less than 0.01 µM.
The value for `NS(=O)(=O)OC[C@H]1C[C@@H](Nc2ccnc3cc(-c4ccc5[nH]c6ccccc6c5c4)nn23)[C@H](O)[C@@H]1O` (racemic) [Compound I-037, (rac)-[(1R,2R,3S,4R)-4-{[2-(9H-carbazol-3-yl)pyrazolo[1,5-a]pyrimidin-7-yl]amino}-2,3-dihydroxycyclopentyl]methyl rel-sulfamate] was less than 0.01 µM.
